In series [1] the target is T1, NEP (neutral endopeptidase EC.3.4.24.11), native enzyme isolated from kidneys (Homo sapiens, UniProt P08473).
T1 construct: NEP is isolated from kidneys following the method described by Kenny and Booth; from tissue
As to the kind of experiment: Assay of NEP peptidase activity (fluorogenic peptide substrate), IC50 determination. The note with it: read-out: activity against NEP expressed as an IC50. It is filed as biochemical. The procedure:
Production of Native NEP Enzyme:
NEP is isolated from kidneys following the method described by Kenny and Booth (Booth, A. G. & Kenny, A. J. (1974) Biochem. J. 142, 575-581).
Assay of SEP or NEP Peptidase Activity
The peptidase activity of SEP or NEP is measured by monitoring its ability to proteolyse the synthetic peptide substrate Rhodamine green-Gly-Gly-dPhe-Leu-Arg-Arg-Val-Cys(QSY7)-βAla-NH2:
Reagents for the assay are first prepared as follows:
A substrate solution is made up by diluting a 2 mM/100% DMSO Rhodamine green-Gly-Gly-dPhe-Leu-Arg-Arg-Val-Cys(QSY7)-βAla-NH2 stock solution in 50 mM HEPES buffer pH7.4 (Sigma, UK) at a concentration of 2 μM.
An aliquot of SEP or NEP enzyme described above is thawed then diluted in 50 mM HEPES, pH7.4 containing 1 EDTA free protease inhibitor cocktail tablet (Roche Diagnostics, UK) per 25 ml. […]
(§1) In a black 384 well microtitre plate, 15 μl of enzyme solution is added to 15 μl of 4% DMSO solution. […] Following incubation a fluorescence measurement is taken (Ex485/Em538). BMG galaxy fluorescence reader (BMG Lab technologies, Offenberg, Germany).
(§2) The proteolytic activity of the enzyme corresponds to the fluorescence of the sample minus the fluorescence of the non-specific background blank.
(§3) A fluorescence measurement taken from 60 μl of product in a well on an identical microtitre plate may be taken. […]

Series [2] deals with T2, Recombinant SEP (soluble secreted endopeptidase) (Homo sapiens, UniProt Q495T6).
T2 construct: made in house
T2 sequence (Q495T6 75-779 limits assumed): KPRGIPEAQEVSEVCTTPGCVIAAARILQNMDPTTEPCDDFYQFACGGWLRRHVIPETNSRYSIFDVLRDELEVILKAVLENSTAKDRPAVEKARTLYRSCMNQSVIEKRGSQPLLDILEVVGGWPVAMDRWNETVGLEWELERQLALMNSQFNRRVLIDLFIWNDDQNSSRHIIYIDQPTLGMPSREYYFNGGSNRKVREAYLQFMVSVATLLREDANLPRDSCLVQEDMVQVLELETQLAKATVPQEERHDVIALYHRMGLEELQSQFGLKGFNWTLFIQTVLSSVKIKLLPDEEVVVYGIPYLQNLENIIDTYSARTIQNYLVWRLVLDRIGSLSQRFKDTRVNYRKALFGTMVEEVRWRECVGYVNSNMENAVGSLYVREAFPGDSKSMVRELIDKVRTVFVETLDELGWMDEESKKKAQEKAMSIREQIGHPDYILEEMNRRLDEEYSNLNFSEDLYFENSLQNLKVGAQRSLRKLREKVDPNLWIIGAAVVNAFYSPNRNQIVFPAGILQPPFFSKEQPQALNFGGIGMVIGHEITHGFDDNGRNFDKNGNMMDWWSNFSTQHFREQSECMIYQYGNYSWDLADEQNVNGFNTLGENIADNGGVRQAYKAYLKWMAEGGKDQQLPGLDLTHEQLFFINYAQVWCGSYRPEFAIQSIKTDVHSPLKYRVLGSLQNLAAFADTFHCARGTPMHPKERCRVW
Put plainly: Assay of SEP peptidase activity (fluorogenic peptide substrate), IC50 determination. It is filed as biochemical. The conditions noted are these: ratio of SEP to NEP inhibition. The procedure: Recombinant SEP enzyme is produced using one of two alternative methods:
Method 1: A culture of Chinese Hamster Ovary (CHO) cells is transfected with the plasmid NCIMB deposit number 41110 using the lipofectamine method as described in the lipofectamine reagent protocol (Invitrogen Ltd, Paisley, UK). The cell media is harvested at 24 or 48 hours post transfection, and cleared of cell debris by centrifugation at 3000 g for 5 min. The media is then dialyzed overnight at 4° C. against 50 mM HEPES pH7.4/10% glycerol, using a “slide a lyser” from Pierce and Warner, Chester UK. The dialyzed sample is then frozen in aliquots and stored under liquid nitrogen. […]
The peptidase activity of SEP or NEP is measured by monitoring its ability to proteolyse the synthetic peptide substrate Rhodamine green-Gly-Gly-dPhe-Leu-Arg-Arg-Val-Cys(QSY7)-βAla-NH2: […]
as §1, §2, §3

Each structure is given as a SMILES string.

T1 sequence (P08473 whole entry): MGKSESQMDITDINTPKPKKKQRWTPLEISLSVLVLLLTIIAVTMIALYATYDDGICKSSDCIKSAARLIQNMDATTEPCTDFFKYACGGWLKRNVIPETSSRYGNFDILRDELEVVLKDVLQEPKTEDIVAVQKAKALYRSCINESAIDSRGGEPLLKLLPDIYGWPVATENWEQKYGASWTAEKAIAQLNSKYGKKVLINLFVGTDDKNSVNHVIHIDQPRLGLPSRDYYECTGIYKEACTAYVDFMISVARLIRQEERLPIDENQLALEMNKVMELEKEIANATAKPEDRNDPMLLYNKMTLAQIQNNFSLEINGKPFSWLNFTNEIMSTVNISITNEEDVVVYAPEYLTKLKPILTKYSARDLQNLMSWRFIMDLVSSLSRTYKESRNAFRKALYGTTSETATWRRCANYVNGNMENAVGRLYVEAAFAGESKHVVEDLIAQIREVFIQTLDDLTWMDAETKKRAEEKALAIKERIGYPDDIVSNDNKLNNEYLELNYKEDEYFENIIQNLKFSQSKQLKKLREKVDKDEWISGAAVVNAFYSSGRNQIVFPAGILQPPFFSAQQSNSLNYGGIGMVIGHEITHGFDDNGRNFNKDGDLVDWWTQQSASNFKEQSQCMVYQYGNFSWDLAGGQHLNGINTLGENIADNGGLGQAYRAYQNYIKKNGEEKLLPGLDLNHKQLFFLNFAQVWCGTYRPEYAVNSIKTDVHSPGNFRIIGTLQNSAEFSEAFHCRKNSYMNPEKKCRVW

With `Cc1nc2ccc(CCCNC(=O)C3(C[C@@H](C)C(=O)O)CCCC3)cc2s1` [Example 1, (R)-2-Methyl-3-(1-{[3-(2-methyl-1,3-benzothiazol-6-yl)propyl]carbamoyl}cyclopentyl)propanoic acid], the melting point was in the range of 105 to 106 °C. Besides, in series [1], the IC50 was 1 nM. Also, the “selectivity for NEP over SEP” value in series [2] worked out at 1900 fold.
For `CCc1nc2ccc(CCCNC(=O)C3(CCC(=O)O)CCCC3)cc2s1` [Example 2, 3-(1-{[3-(2-ethyl-1,3-benzothiazol-6-yl)propyl]carbamoyl}cyclopentyl)propanoic acid], the melting point is 127.5 to 129.5 °C.

Values taken from US20040180941A1, “3-(1-[3-(1,3-Benzothiazol-6-yl)propylcarbamoyl]cycloalkyl)propanoic acid derivatives as NEP inhibitors” (Pfizer Inc, priority 2003, published 2004).
